Measured values published in patent US20250361241A1, “HPK1 INHIBITOR AND MEDICAL USE THEREOF” (Betta Pharmaceuticals Co., Ltd., priority 2022, published 2025).
Where “and” joins values, the source holds several entries; their conditions need not be identical. Equal values may be shown once.

Tests used:
Jurkat cells = test: Jurkat IL-2 secretion detection (anti-CD3/CD28 beads, ELISA); format: cell-based, human; conditions: for Maximum induction factor: IL-2 secretion, Jurkat cells; for EC3x: concentration for IL-2 secretion of Jurkat cells to reach 3 times the baseline, 20 h
Description: Pharmacological Experiment 5: Jurkat IL-2 Secretion Detection
• (1) Take the cultured Jurkat cells, adjust the density to 1×10^6 cells/mL, and inoculate them in a flat-bottom […] plate (Jet Biofil, TCP011096), with 100 μL per well, • (2) Add 50 μL of the test compound to each well and incubate at 37° C. for 30 min; • (3) Take human anti-CD3/CD28 magnetic beads (Miltenyi, 130-091-441), wash once with RPMI-1640 complete medium, and adjust the density to 4×106 beads/mL for later use; • (4) After the compound incubation, 50 μL of anti-human CD3/CD28 magnetic beads were added to each well and cultured at 37° C. for 20 h, • (5) The cell culture supernatant was obtained and the IL-2 secretion was detected using the Human IL-2 DuoSet ELISA kit (R&D, DY008); • (6) The log value of the concentration was used as the X-axis and the IL-2 secretion was used as the Y-axis. The “log (agonist) vs. response-variable slope” equation of the analysis software GraphPad Prism 7 was used to fit the dose-effect curve, thereby obtaining the […] and the […]

GLK = GLK (Homo sapiens (Human), UniProt Q8IVH8); test: GLK kinase assay (1 mM ATP system), ADP-Glo; format: biochemical
GLK, sequence (Q8IVH8 whole entry, species assumed): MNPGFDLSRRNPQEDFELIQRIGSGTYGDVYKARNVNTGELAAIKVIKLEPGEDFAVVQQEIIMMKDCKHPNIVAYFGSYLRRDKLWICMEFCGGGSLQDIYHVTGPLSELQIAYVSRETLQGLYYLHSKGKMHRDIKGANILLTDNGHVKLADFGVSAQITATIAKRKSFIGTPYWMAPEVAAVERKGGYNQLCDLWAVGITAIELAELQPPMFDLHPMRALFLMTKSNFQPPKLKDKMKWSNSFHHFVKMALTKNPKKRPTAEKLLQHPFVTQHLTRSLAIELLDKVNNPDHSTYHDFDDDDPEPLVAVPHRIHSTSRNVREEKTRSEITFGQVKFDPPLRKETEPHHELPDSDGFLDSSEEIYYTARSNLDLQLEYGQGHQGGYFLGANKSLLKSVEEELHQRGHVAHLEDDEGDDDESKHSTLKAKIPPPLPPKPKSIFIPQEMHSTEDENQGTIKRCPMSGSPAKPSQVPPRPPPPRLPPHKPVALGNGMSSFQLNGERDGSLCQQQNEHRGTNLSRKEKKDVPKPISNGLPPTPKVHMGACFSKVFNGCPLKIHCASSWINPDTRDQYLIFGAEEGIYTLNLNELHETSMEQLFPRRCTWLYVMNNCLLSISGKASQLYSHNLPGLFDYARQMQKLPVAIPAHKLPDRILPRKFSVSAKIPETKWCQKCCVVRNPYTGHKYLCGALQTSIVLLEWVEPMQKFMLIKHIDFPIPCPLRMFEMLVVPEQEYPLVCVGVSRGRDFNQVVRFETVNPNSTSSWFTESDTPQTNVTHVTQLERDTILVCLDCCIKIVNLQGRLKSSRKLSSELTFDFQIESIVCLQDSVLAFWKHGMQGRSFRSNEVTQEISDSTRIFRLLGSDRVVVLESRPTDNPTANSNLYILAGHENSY
Summary of the method: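 GLK kinase reaction with 1 mM ATP and MBP substrate ran 60 min at 25 °C after 15 min preincubation of enzyme with compound. ADP formed was detected by ADP-Glo luminescence; percent inhibition used to derive IC50.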

HPK1 [1] = molecular target: T1, HPK1 (Homo sapiens (Human), UniProt Q92918); test: HPK1 enzyme activity detection (1 mM ATP system), ADP-Glo with MBP substrate, Pharmacological Experiment 2; format: biochemical
T1 sequence (Q92918 whole entry, species assumed): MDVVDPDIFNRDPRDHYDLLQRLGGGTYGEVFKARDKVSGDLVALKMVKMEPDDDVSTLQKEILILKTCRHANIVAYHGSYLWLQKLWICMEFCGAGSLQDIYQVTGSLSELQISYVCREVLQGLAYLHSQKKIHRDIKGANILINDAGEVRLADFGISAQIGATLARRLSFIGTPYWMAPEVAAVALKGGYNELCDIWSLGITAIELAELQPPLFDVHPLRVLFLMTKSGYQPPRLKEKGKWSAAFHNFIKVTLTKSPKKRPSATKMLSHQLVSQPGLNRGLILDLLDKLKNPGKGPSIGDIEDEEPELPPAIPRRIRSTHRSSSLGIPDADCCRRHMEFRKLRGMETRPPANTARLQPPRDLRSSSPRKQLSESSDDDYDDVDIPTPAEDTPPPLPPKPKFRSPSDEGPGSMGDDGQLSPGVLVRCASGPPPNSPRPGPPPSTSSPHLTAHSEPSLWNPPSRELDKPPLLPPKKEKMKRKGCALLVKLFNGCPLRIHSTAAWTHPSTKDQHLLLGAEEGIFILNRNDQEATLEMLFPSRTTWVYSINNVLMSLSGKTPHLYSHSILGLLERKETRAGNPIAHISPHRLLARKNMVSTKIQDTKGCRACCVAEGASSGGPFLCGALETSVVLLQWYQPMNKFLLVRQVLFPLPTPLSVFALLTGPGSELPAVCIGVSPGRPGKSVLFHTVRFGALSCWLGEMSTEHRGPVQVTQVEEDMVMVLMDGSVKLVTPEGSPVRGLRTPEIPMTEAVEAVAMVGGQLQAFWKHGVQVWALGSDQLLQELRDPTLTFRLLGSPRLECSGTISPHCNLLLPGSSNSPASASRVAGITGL
Summary of the method: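 Compound in DMSO preincubated with HPK1 for 15 min at 25 °C, then reaction started with ATP (1 mM system) and MBP substrate for 60 min at 25 °C. ADP formed quantified by ADP-Glo luminescence; IC50 derived from percentage inhibition.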

HPK1 [2] = molecular target: T1, HPK1; test: HPK1 enzyme activity detection (1 mM ATP system), ADP-Glo, Pharmacological Experiment 1; format: biochemical
Description: Pharmacological Experiment 1: HPK1 Enzyme Activity Detection (1 mM ATP System)
• (1) Take ADP-GloTMKinase Assay Kit (Promega, Cat. No. V9102) to prepare 4× kinase buffer. • (2) Compound gradient dilution: The compound to be tested is diluted 3-fold, and 11 gradient concentrations are set, and each concentration is set for duplicate well detection. Serial dilutions were made in a 384-well plate to the corresponding 100×final concentration solution, and then 0.1 μL was transferred to the 384-well reaction plate for testing using Echo. Transfer 0.1 μL of 100% DMSO to the smallest and largest wells. • (3) Prepare HPK1 enzyme working solution using 4× kinase buffer. • (4) Add 5 μL of HPK1 enzyme working solution to each well and 5 μL of 1× kinase buffer to the smallest well. Centrifuge at 1000 rpm for 1 min and incubate at 25° C. for 15 min. • (5) During the incubation period, prepare the substrate working solution using 4× kinase buffer. • (6) Add 5 μL of substrate working solution containing 1 mM ATP to each well of the reaction plate, centrifuge at 1000 rpm for 1 min, and incubate at 25° C. for 60 min. • (7) At the end of incubation, add 5 μL of ADP Glo reagent to each well. Centrifuge at 1000 rpm for 1 min and incubate at 25° C. for 60 min. • (8) Add 10 μL of detection solution to each well, centrifuge at 1000 rpm for 1 min, and incubate at 25° C. for 60 min. • (9) Read using EnVision.
Inhibition rate calculation formula:
[formula] • Vehicle: Reading value of DMSO control well • Blank: No enzyme well reading • Largest well: Reading value of DMSO control well • Minimum well: No enzyme well reading
The log value of the concentration was used as the X-axis and the percentage inhibition rate was used as the Y-axis. The “log (inhibitor) vs. response—variable slope” of the analysis software GraphPad Prism 5 was used to fit the dose-effect curve to obtain the IC 50 value of the compound's inhibition of kinase binding.
See Table 1 for the enzymatic IC 50 data of the example compounds on HPK1.

[3] = tested on: human peripheral blood mononuclear cells; test: Detection of IFN-γ secretion in human peripheral blood mononuclear cells (anti-CD3/CD28 beads, ELISA); format: cell-based; conditions: for Maximum induction factor: IFN-γ secretion, human PBMC; for EC3x: concentration for IFN-γ secretion of human PBMC to reach 3 times the baseline, 3 days
Description: Pharmacological Experiment 4: Detection of IFN-γ Secretion in Human Peripheral Blood Monocytes
• (1) Take human peripheral blood mononuclear cells frozen in liquid nitrogen, thaw in a 37° C. water bath, add 5 mL of preheated RPMI-1640 complete medium (containing 10% fetal bovine serum and penicillin/streptomycin), centrifuge at 500 g for 10 minutes, and discard the supernatant; • (2) Resuspend the cells in RPMI-1640 complete medium, adjust the density to 5×10^6 cells/mL, inoculate in a low-adhesion 6-well plate (Corning, 3471), and culture at 37° C. for 2 days; • (3) Collect cultured human peripheral blood mononuclear cells, centrifuge at 500 g for 10 min, and discard the supernatant; • (4) Resuspend the cells in RPMI-1640 complete medium, adjust the density to 1×10^6 cells/mL, and inoculate them in a round-bottom 96-well plate (Jet Biofil, TCP-002-096), with 100 μL per well; • (5) Add 50 μL of the test compound to each well and incubate at 37° C. for 30 min; • (6) Take human anti-CD3/CD28 magnetic beads (Miltenyi, 130-091-441), wash once with RPMI-1640 complete medium, and adjust the density to 0.5×106 beads/mL for later use; • (7) After the compound incubation, 50 μL of anti-human CD3/CD28 magnetic beads were added to each well and cultured at 37° C. for 3 days, • (8) The cell culture supernatant was obtained and the IFN-γ secretion was detected using the Human IFN-gamma DuoSet ELISA kit (R&D, DY285B-05); • (9) The log value of concentration was used as the X-axis and the IFN-γ secretion amount was used as the Y-axis. The “log (agonist) vs. response−variable slope” equation of the analysis software GraphPad Prism 7 was used to fit the dose-effect curve, thereby obtaining the EC3x value and the maximum induction factor of the compound for the secretion of IFN-γ from human peripheral blood mononuclear cells to reach 3 times the baseline.

[4] = PK study of compound in dogs; format: in vivo; conditions: Beagle dog, PO 5 mg/kg, DMSO/Solutol/saline
Description: Pharmacological Experiment 6: PK Study of Compound in Dogs The compound was mixed with a solvent of saline or 10% DMSO/5% Solutol/85% saline or 10% DMSO/10% Solutol/80% saline (specific solvents are shown in the table below), vortexed and sonicated to prepare a clear oral solution. […] The drug concentration was analyzed by LC-MS/MS method, and the pharmacokinetic parameters were calculated using Phoenix WinNolin software (Pharsight, USA).

Molecule: O=C1NCc2c(-c3cnc4cc(F)ccn34)ccc(Nc3ccc4c(n3)C(NC3CCOCC3)CC43CCOCC3)c21 (stereo not drawn) [Compound 108]
- Maximum induction factor (Jurkat cells): 8.4
- EC3x (Jurkat cells): 448 nM
- IC50 (GLK): 1050 nM
- IC50 (HPK1 [1]): 3.29 nM

Molecule: CN(C)C1CC2(CCOCC2)c2ccc(Nc3ccc(-c4cnc5cc(F)ccn45)c4c3C(=O)NC4)cc21 (stereo not drawn) [Compound 9]
- IC50 (HPK1 [2]): 205 nM

Molecule: CN(C)C1CCC2(CCOCC2)c2ccc(Nc3ccc(-c4cnc5cc(F)ccn45)c4c3C(=O)NC4)cc21 (stereo not drawn) [Compound 1]
- IC50 (HPK1 [2]): 61.2 nM

Molecule: Cc1cc(Nc2ccc(-c3cnc4cc(F)ccn34)c3c2C(=O)NC3)cc2c1C1(CC1)CN(C)C2 [Compound 16]
- IC50 (HPK1 [2]): 20.6 nM

Molecule: Cc1cc(Nc2cnc(-c3ccnc4c3ccn4C)c3c2C(=O)NC3)cc2c1C1(CCOCC1)CN(C)C2 [Compound 14]
- IC50 (HPK1 [2]): 54.8 nM

Molecule: 4-(7-FLUOROIMIDAZO[1,2-A]PYRIDIN-3-YL)-7-((7′-METHYL-2,3,5,6,7′,8′-HEXAHYDRO-6′-SPIRO[PYRAN-4,5′-[1,7]NAPHTHYRIDINE]-2′-YL)AMINO)ISOINDOL-1-ONE [Compound 50]
- Maximum induction factor [3]: 4.8
- EC3x [3]: 181 nM
- IC50 (GLK): 1230 nM
- IC50 (HPK1 [1]): 3.39 nM

Molecule: O=C1NCc2c(-c3cnc4cc(F)ccn34)ccc(Nc3ccc4c(n3)CCCC43CCC3)c21 [Compound 125]
- Maximum induction factor [3]: 20.2
- EC3x [3]: 173 nM
- IC50 (GLK): 1200 nM
- IC50 (HPK1 [1]): 11.1 nM

Molecule: CC(C)NC1CC2(CCOCC2)c2ccc(Nc3ccc(-c4cnc5cc(F)ccn45)c4c3C(=O)NC4)nc21 (stereo not drawn) [Compound 104]
- Maximum induction factor (Jurkat cells): 8.3
- EC3x (Jurkat cells): 172 nM
- IC50 (GLK): 552 nM
- IC50 (HPK1 [1]): 3.49 nM

Molecule: CN(C)C1CC2(CCOC2)c2ccc(Nc3ccc(-c4cnc5cc(Cl)ccn45)c4c3C(=O)NC4)nc21 (stereo not drawn) [Compound 151]
- Maximum induction factor [3]: 6.5
- EC3x [3]: 53 nM
- IC50 (GLK): 970 nM
- IC50 (HPK1 [1]): 6.34 nM

Molecule: O=C1NCc2c(-c3cnc4cc(OC(F)F)ccn34)ccc(Nc3ccc4c(n3)CNCC43CCOCC3)c21 [Compound 123]
- Maximum induction factor [3]: 26.8
- EC3x [3]: 214 nM
- IC50 (GLK): 896 nM
- IC50 (HPK1 [1]): 12.1 nM

Molecule: O=C1NCc2c(-c3cnc4cc(F)ccn34)ccc(Nc3ccc4c(n3)C(NC3CCOC3)CC43CCOCC3)c21 (stereo not drawn) [Compound 107]
- Maximum induction factor [3]: 8.8
- EC3x [3]: 296 nM
- IC50 (GLK): 1200 nM
- IC50 (HPK1 [1]): 3.55 nM

Molecule: O=C1NCc2c(-c3cnc4cc(F)ccn34)ccc(Nc3ccc4c(n3)C(NC3CC3)CC43CCOCC3)c21 (stereo not drawn) [Compound 62, 7-((7-(CYCLOPROPYLAMINO)-2′,3′,5′,6,6′,7-HEXAHYDROSPIRO[CYCLOPENTYL[B]PYRIDINE-5,4′-PYRAN]-2-YL)AMINO)-4-(7-FLUOROIMIDAZOLE[1,2-A]PYRIDIN-3-YL)ISOINDOL-1-ONE]
- Maximum induction factor [3]: 4.9
- EC3x [3]: 241 nM
- IC50 (GLK): > 30000 nM
- IC50 (HPK1 [1]): 10.2 nM

Molecule: O=C1NCc2c(-c3cnc4cc(F)ccn34)ccc(Nc3ccc4c(n3)C(N3CC[C@@H](F)C3)CC43CCOCC3)c21 (stereo partly drawn) [Compound 71, 4-(7-FLUOROIMIDAZOLO[1,2-A]PYRIDIN-3-YL)-7-((7-((R)-3-FLUOROPYRROLIDIN-1-YL)-2′,3′,5′,6,6′,7-HEXA HYDROSPIRO[CYCLOPENTYL[B]PYRIDIN-5,4′-PYRAN]-2-YL)AMINO)ISOINDOL-1-ONE]
- Maximum induction factor [3]: 16.6
- EC3x [3]: 76 nM
- IC50 (GLK): 293 nM
- IC50 (HPK1 [1]): 3.27 nM

Molecule: O=C1NCc2c(-c3cnc4cc(F)ccn34)ccc(Nc3ccc4c(n3)C(N3CC[C@H](F)C3)CC43CCOCC3)c21 (stereo partly drawn) [Compound 75]
- Maximum induction factor [3]: 8.3 and 10.5
- EC3x [3]: 64 nM and 119 nM
- IC50 (GLK): 273 nM
- IC50 (HPK1 [1]): 2.78 nM

Molecule: CN(C)[C@@H]1CC2(CCOCC2)c2ccc(Nc3ccc(-c4cnc5cc(OC(F)F)ccn45)c4c3C(=O)NC4)nc21 [Compound 158A, (R)-4-(7-(DIFLUOROMETHOXY)IMIDAZOL 1,2-A]PYRIDIN-3-YL)-7-((7-DIMETHYLAMINO)-2′,3′,5′,6,6′,7-HEXAHYDROSPIRO[CYCLOPENTADIENYL[B]PYRIDINE-54′-PYRAN]-2-YL)AMINO)ISOINDOLIN-1-ONE]
- Maximum induction factor [3]: 10.8
- EC3x [3]: 167 nM
- IC50 (GLK): 206 nM
- IC50 (HPK1 [1]): 3 nM
- Bioavailability F % [4]: 43%
- PO Plasma AUC [4]: 2704 ng·h/mL
- T1/2 [4]: 6.06 h

Molecule: CN(C)C1CC2(CCOC2)c2ccc(Nc3ccc(-c4cnc5cc(F)ccn45)c4c3C(=O)NC4)nc21 (stereo not drawn) [Compound 58, 7-((7-(DIMETHYLAMINO)-4′,5′,6,7-TETRAHYDRO-2′H-SPIRO[CYCLOPENTANE[B]PYRIDINE-5,3′-FURAN]-2-YL)AMINO)-4-(7-FLUOROIMIDAZO[1,2-A]PYRIDIN-3-YL)ISOINDOL-1-ONE]
- Maximum induction factor [3]: 6.5
- EC3x [3]: 352 nM
- IC50 (GLK): 1480 nM
- IC50 (HPK1 [1]): 5.25 nM

Molecule: Cc1ccn2c(-c3ccc(Nc4ccc5c(n4)C(N(C)C)CC54CCOCC4)c4c3CNC4=O)cnc2c1 (stereo not drawn) [Compound 161]
- Maximum induction factor [3]: 6.4
- EC3x [3]: 67 nM
- IC50 (GLK): 311 nM
- IC50 (HPK1 [1]): 3.57 nM

Molecule: O=C1NCc2c(-c3cnc4cc(F)ccn34)ccc(Nc3ccc4c(n3)C(N3CCCC3)CC43CCOCC3)c21 (stereo not drawn) [Compound 40, 4-(7-FLUOROIMIDAZO[1,2-A]PYRIDIN-3-YL)-7-((7-(PYRROLIDIN-1-YL)-2′,3′,5′,6,6′,7-HEXAHYDROSPIRO[B]PYRIDIN-5,4′-PYRAN]-2-YL)AMINO)ISOINDOLIN-1-ONE]
- Maximum induction factor (Jurkat cells): 11.5
- EC3x (Jurkat cells): 163 nM
- IC50 (HPK1 [1]): 4.8 nM

Molecule: O=C1NCc2c(-c3cnc4cc(F)ccn34)ccc(Nc3ccc4c(n3)CCCC43CCCC3)c21 [Compound 127]
- Maximum induction factor [3]: 19.1
- EC3x [3]: 74.6 nM
- IC50 (GLK): 767 nM
- IC50 (HPK1 [1]): 5.23 nM
